The structures appear in SMILES notation.

From ChEMBL document CHEMBL1134184, “Synthesis of sialyl Lewis(x) mimics. Modifications of the 6-position of galactose” (Bioorg Med Chem Lett, 2001) come the findings set out here.

For this test, the target named is T1, E-selectin (Homo sapiens, UniProt P16581).
T1 sequence (P16581 whole entry): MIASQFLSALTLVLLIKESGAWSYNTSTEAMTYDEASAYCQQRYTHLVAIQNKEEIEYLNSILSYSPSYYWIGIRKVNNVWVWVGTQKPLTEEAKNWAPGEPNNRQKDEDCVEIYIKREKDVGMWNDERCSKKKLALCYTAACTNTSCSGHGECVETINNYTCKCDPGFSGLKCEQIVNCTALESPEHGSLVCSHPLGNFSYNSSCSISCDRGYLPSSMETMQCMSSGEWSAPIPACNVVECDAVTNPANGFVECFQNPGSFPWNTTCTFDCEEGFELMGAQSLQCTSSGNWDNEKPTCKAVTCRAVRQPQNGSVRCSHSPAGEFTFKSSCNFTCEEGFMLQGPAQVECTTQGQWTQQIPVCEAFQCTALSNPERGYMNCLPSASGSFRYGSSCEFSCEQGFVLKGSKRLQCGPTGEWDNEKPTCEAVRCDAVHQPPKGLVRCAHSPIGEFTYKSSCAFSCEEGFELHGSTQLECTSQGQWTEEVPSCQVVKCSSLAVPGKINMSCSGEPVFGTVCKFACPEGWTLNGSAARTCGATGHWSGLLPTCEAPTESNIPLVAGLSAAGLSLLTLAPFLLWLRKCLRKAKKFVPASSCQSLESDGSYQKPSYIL
The test is described as follows: Inhibitory concentration of compound to block the binding of sLE Xto E-selectin.
As usually defined, the IC50 is the point on the concentration scale where inhibition reaches its midpoint. A low value points to greater potency in that assay. `C[C@@H]1O[C@@H](O[C@@H]2CCCC[C@H]2O[C@@H]2O[C@@H](COS(=O)(=O)O)[C@H](O)[C@H](O[C@@H](Cc3ccccc3)C(=O)O)[C@@H]2O)[C@@H](O)[C@@H](O)[C@@H]1O`: the IC50 was more than 10 mM.

Regarding `CC1OC(OC2CCCCC2OC2OC(CNC(=O)c3ccccc3)C(O)C(OC(Cc3ccccc3)C(=O)O)C2O)C(O)C(O)C1O` (stereo not given), the IC50 is more than 10 mM.

In turn, `CC1OC(OC2CCCCC2OC2OC(C(N)=O)C(O)C(O[C@@H](CC3CCCCC3)C(=O)O)C2O)C(O)C(O)C1O` (stereo not given in full) showed an IC50 of more than 10 mM.

In turn, `COC(=O)CCCCCCCCO[C@@H]1OC(CO)[C@@H](O[C@@H]2O[C@@H](CO)[C@H](O)[C@H](O[C@]3(C(=O)O)C[C@@H](O)[C@@H](NC(C)=O)[C@@H](C(O)C(O)CO)O3)[C@@H]2O)[C@@H](O[C@@H]2O[C@H](C)[C@@H](O)[C@H](O)C2O)[C@@H]1NC(C)=O` (stereo not given in full) yielded a 50% inhibitory concentration (IC50) of 1 mM.

As to `C[C@@H]1O[C@@H](O[C@@H]2CCCC[C@H]2O[C@@H]2O[C@@H](C(=O)O)[C@H](O)[C@H](O[C@@H](Cc3ccccc3)C(=O)O)[C@@H]2O)[C@@H](O)[C@@H](O)[C@@H]1O`, the IC50 was more than 10 mM.

Regarding `C[C@@H]1O[C@@H](O[C@@H]2CCCC[C@H]2O[C@@H]2O[C@@H](CO)[C@H](O)[C@H](O[C@@H](CC3CCCCC3)C(=O)O)[C@@H]2O)[C@@H](O)[C@@H](O)[C@@H]1O`, the IC50 came out at 0.08 mM.

Regarding `CC1OC(OC2CCCCC2OC2OC(CN)C(O)C(O[C@@H](Cc3ccccc3)C(=O)O)C2O)C(O)C(O)C1O` (stereo not given in full), the IC50 is more than 10 mM.

`C[C@@H]1O[C@@H](O[C@@H]2CCCC[C@H]2O[C@@H]2O[C@@H](CO)[C@H](O)[C@H](O[C@@H](Cc3ccccc3)C(=O)O)[C@@H]2O)[C@@H](O)[C@@H](O)[C@@H]1O`: the IC50 is 0.35 mM.

`CC(=O)NCC1OC(OC2CCCCC2OC2OC(C)C(O)C(O)C2O)C(O)C(OC(Cc2ccccc2)C(=O)O)C1O` (stereo not given) yielded an IC50 of more than 10 mM.

In turn, `C[C@@H]1O[C@@H](O[C@@H]2CCCC[C@H]2O[C@@H]2O[C@@H](C(=O)O)[C@H](O)[C@H](O[C@@H](CC3CCCCC3)C(=O)O)[C@@H]2O)[C@@H](O)[C@@H](O)[C@@H]1O` displayed a half-inhibitory concentration (IC50) of more than 10 mM.
